Assay [1] addresses RAC-gamma serine/threonine-protein kinase (Homo sapiens) (UniProt Q9Y243).
In assay [2] the target is ALK tyrosine kinase receptor (Homo sapiens) (UniProt Q9UM73).
Assay [3] concerns the target Aurora kinase B (Homo sapiens) (UniProt Q96GD4).
For assay [4], the target named is Bone morphogenetic protein receptor type-1A (Homo sapiens) (UniProt P36894).
Assay [5] has as its target Cyclin-dependent kinase-like 1 (Homo sapiens) (UniProt Q00532).
Assay [6] deals with T1, Myotonin-protein kinase (Homo sapiens) (UniProt Q09013).
T1 sequence (whole entry): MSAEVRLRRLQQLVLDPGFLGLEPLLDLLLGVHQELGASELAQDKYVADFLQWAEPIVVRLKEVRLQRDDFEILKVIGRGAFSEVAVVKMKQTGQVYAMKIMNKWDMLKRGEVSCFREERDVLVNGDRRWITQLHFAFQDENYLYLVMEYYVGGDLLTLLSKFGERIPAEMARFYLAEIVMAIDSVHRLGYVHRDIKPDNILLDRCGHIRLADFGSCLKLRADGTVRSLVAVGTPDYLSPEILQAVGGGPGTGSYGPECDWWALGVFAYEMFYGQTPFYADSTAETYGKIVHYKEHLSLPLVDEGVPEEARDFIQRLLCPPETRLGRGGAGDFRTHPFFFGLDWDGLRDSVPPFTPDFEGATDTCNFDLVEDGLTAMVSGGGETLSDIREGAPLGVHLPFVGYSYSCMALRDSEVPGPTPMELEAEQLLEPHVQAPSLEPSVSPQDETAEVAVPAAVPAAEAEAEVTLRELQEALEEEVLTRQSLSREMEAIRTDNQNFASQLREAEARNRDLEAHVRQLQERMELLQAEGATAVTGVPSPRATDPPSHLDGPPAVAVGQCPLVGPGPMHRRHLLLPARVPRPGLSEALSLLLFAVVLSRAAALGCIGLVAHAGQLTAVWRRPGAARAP

For assay [7], the target named is Dual specificity tyrosine-phosphorylation-regulated kinase 1B (Homo sapiens) (UniProt Q9Y463).
Assay [8] relates to Receptor-type tyrosine-protein kinase FLT3 (Homo sapiens), P36888 [UNDEFINED MUTATION].
In assay [9] the target is T2, Homeodomain-interacting protein kinase 4 (Homo sapiens) (UniProt Q8NE63).
T2 sequence (whole entry): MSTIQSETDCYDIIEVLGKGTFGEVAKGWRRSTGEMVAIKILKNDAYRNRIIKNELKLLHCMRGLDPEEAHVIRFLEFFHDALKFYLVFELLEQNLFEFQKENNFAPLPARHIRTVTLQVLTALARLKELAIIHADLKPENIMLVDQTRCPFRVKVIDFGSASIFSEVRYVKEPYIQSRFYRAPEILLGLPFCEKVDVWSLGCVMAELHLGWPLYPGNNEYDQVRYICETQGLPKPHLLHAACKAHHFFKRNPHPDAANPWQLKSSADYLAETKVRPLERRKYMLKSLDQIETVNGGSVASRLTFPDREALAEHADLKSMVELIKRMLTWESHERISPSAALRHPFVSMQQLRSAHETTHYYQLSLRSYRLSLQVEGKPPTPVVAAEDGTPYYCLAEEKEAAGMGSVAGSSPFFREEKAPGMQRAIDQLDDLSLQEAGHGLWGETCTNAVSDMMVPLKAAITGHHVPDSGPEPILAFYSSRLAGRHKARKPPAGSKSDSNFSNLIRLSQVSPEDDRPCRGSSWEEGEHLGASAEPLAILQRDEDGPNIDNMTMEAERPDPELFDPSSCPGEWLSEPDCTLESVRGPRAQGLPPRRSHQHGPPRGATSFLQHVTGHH

The target in assay [10] is Hormonally up-regulated neu tumor-associated kinase (Homo sapiens) (UniProt P57058).
Assay [11] deals with Tyrosine-protein kinase Lyn (Homo sapiens) (UniProt P07948).
The target of assay [12] is Serine/threonine-protein kinase mTOR (Homo sapiens) (UniProt P42345).
Assay [13] concerns the target Serine/threonine-protein kinase 38 (Homo sapiens) (UniProt Q15208).
Assay [14] addresses Cyclin-dependent kinase 14 (Homo sapiens) (UniProt O94921).
Assay [15] has as its target Rho-associated protein kinase 1 (Homo sapiens) (UniProt Q13464).
Assay [16] deals with Ribosomal protein S6 kinase alpha-2 (Homo sapiens) (UniProt Q15349).
Assay [17] concerns the target TGF-beta receptor type-2 (Homo sapiens) (UniProt P37173).
For assay [18], the target named is Non-receptor tyrosine-protein kinase TNK1 (Homo sapiens) (UniProt Q13470).
In assay [19] the target is Non-receptor tyrosine-protein kinase TYK2 (Homo sapiens) (UniProt P29597).
Assay [20] deals with Serine/threonine-protein kinase 32A (Homo sapiens) (UniProt Q8WU08).
The target of assay [21] is Serine/threonine-protein kinase 32B (Homo sapiens) (UniProt Q9NY57).
Assay [22] has as its target 5-hydroxytryptamine receptor 5A (Homo sapiens) (UniProt P47898). The conditions noted are these: Compound concentration 10.0 uM.
Assay [23] has as its target D(3) dopamine receptor (Homo sapiens) (UniProt P35462). As to conditions: Compound concentration 10.0 uM.
Assay [24] has as its target Sigma intracellular receptor 2 (Homo sapiens, UniProt Q5BJF2). As to conditions: Compound concentration 10.0 uM.
[25] abbreviates: Compound concentration 1000.0 nM.
Setting [26] is: Compound concentration 100.0 nM.

Chain of ALK tyrosine kinase receptor (Homo sapiens) (Q9UM73 19-1620 limits assumed): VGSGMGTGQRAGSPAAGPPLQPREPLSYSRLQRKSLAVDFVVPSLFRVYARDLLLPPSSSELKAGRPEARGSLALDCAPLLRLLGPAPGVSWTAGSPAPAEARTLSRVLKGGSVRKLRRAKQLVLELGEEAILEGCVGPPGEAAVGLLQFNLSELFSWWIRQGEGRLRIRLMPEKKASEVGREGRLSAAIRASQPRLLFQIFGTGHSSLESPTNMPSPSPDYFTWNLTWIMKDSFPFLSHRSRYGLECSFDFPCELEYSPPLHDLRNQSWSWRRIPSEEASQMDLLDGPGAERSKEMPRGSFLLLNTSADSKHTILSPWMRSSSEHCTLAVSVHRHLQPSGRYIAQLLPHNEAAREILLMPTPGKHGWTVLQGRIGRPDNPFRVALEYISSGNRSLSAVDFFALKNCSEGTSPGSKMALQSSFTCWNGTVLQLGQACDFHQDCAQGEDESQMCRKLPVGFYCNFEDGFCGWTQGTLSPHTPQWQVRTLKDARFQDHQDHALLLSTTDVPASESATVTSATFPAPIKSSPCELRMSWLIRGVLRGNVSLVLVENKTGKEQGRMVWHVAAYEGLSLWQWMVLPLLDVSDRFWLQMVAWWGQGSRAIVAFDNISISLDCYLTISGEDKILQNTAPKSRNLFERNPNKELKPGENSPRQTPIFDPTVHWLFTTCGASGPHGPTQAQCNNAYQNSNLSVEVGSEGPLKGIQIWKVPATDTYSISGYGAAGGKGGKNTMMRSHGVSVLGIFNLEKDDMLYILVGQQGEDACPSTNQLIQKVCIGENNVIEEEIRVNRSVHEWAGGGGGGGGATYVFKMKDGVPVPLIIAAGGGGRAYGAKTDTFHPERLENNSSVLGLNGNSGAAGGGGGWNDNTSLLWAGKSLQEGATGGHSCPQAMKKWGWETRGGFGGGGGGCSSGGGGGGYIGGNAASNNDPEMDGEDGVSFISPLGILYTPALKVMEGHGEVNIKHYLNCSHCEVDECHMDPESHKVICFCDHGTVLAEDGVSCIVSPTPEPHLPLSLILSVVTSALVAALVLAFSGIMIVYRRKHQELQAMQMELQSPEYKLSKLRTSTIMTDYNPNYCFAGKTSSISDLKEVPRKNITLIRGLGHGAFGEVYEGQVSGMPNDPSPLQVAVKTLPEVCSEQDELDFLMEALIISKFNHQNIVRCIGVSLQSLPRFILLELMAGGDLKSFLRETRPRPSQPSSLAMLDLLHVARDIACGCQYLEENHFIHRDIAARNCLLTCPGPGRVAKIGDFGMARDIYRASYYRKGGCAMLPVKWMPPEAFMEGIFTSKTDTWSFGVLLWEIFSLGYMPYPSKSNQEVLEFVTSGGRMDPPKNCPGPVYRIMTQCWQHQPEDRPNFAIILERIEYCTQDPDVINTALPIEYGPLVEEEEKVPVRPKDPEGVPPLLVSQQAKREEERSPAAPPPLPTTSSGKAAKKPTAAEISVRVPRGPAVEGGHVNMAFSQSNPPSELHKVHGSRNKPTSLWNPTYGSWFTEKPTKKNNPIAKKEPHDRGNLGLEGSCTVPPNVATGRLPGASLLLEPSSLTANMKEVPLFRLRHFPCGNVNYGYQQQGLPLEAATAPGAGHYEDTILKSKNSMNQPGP
Chain of Serine/threonine-protein kinase 38 (Homo sapiens) (Q15208 2-465 limits assumed): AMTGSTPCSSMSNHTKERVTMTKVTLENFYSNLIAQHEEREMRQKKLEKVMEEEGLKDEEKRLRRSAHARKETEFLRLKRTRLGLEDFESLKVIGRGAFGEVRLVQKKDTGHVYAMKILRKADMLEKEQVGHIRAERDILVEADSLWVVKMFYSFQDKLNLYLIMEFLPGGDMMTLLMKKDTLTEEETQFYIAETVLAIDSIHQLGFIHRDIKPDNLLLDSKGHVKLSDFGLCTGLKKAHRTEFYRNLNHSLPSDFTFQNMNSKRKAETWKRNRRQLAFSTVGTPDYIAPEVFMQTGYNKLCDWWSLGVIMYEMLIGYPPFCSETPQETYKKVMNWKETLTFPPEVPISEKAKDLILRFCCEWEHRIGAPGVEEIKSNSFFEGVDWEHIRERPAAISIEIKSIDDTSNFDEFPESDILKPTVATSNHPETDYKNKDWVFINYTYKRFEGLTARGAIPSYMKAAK
Chain of Receptor-type tyrosine-protein kinase FLT3 (Homo sapiens), P36888 [UNDEFINED MUTATION] (P36888 whole entry, looked up, change not shown): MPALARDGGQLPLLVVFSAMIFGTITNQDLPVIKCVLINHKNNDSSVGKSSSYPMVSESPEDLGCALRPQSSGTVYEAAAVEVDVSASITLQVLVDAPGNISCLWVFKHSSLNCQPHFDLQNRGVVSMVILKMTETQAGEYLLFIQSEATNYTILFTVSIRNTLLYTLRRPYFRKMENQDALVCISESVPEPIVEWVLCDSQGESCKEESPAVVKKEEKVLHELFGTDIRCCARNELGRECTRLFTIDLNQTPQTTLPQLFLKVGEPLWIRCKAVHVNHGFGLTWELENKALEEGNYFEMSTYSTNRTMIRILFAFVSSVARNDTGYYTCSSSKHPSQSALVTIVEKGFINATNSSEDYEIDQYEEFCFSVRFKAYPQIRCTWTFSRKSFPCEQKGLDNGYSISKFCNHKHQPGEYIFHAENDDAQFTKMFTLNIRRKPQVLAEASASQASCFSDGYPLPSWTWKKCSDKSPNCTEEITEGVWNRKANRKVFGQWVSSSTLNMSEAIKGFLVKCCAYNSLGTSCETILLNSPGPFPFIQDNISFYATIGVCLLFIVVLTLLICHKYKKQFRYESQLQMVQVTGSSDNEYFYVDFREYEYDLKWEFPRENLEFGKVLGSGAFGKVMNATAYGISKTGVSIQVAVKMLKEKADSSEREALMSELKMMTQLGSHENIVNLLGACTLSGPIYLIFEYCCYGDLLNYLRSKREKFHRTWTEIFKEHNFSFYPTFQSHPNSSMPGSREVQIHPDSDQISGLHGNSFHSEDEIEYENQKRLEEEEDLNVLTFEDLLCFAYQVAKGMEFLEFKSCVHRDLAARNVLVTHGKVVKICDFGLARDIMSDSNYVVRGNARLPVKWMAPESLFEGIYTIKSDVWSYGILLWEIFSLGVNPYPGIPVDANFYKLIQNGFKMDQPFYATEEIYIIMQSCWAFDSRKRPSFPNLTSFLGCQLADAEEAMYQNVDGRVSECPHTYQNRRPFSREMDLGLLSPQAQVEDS
Chain of Tyrosine-protein kinase Lyn (Homo sapiens) (P07948 2-512 limits assumed): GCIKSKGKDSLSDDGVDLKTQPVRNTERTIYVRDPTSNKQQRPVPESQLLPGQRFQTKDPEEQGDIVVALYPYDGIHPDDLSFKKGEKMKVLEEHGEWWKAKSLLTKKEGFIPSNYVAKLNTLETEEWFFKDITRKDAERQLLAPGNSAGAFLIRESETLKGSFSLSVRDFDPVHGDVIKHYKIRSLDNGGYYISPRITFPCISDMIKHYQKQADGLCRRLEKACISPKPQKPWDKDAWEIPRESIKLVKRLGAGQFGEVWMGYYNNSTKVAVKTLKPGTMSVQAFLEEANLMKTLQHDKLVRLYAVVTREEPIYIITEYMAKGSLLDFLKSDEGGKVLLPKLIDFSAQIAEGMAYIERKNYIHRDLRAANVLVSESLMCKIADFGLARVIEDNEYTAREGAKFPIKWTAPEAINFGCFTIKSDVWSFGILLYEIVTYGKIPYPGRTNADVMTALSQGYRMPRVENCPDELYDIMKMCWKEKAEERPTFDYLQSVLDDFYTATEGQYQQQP
Chain of Bone morphogenetic protein receptor type-1A (Homo sapiens) (P36894 whole entry): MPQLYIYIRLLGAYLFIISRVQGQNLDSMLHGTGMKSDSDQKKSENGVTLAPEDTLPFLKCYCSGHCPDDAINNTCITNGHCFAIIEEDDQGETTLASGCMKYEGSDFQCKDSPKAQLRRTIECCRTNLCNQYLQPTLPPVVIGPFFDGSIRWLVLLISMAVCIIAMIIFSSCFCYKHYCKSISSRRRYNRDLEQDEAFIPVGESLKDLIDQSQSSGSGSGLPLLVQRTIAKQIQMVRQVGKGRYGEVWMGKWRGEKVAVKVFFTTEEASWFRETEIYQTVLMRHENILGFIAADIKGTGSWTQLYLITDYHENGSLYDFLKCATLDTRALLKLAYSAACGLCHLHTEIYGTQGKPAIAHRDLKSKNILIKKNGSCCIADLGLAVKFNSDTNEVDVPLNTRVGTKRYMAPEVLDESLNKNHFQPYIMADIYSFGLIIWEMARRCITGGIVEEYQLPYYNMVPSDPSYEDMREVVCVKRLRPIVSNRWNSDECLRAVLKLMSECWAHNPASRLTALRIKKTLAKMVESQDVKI
Chain of Aurora kinase B (Homo sapiens) (Q96GD4 whole entry): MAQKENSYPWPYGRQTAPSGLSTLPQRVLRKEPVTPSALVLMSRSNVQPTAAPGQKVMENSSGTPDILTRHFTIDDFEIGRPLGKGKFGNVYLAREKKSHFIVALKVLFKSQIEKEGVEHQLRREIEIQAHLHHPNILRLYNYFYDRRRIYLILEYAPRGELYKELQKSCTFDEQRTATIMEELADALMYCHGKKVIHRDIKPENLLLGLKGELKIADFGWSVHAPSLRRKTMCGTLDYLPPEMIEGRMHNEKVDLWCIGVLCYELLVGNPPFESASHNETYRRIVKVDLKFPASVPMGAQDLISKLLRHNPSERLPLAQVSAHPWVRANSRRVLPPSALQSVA
Chain of Sigma intracellular receptor 2 (Q5BJF2 whole entry): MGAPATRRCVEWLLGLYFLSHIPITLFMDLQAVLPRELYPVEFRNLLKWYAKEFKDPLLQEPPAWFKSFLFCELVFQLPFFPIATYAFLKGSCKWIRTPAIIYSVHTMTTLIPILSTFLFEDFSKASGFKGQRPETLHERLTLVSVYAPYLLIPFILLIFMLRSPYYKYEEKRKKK
Chain of D(3) dopamine receptor (Homo sapiens) (P35462 whole entry): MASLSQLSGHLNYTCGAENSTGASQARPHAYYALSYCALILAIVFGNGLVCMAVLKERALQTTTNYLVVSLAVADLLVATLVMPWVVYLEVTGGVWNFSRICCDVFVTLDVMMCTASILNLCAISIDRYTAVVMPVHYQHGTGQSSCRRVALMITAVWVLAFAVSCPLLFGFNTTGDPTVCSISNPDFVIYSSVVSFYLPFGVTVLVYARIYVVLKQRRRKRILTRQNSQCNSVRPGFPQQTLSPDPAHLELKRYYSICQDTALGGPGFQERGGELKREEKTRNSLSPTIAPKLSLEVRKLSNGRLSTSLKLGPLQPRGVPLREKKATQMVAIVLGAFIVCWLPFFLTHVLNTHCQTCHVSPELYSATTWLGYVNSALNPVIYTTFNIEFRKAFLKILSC

For `C[C@@H]1CN(c2cc(-c3nn(C)c4ccc(OC5(C)CC5)cc34)ncn2)C[C@H](C)O1` [MLi-2-NC], the residual activity in assay [1] (setting [25]) was 100%; in [2] (setting [25]) it was 64%; in assay [3] (setting [25]), 94%; in assay [4] (setting [25]), 85%; in assay [5] (setting [25]) it was 89%; in assay [6] (setting [25]), 100%. In addition, the residual activity was 100% in [7] (setting [25]); 91% in assay [8] (setting [25]); 79% in assay [9] (setting [25]); 100% in [10] (setting [25]); 82% in [11] (setting [25]); 100% in assay [12] (setting [25]). In addition, the residual activity was 57% in [13] (setting [25]); 100% in assay [14] (setting [25]); 100% in [15] (setting [25]); 100% in [16] (setting [25]); 73% in [17] (setting [25]); 95% in assay [18] (setting [25]). Moreover, the residual activity in [19] (setting [25]) was 51%; in assay [20] (setting [25]), 78%; in assay [21] (setting [25]), 100%. In addition, the inhibition was -6.76% in assay [22], 2.71% in [23] and 90.4% in assay [24].
In the case of `C[C@@H]1CN(c2cc(-c3n[nH]c4ccc(OC5(C)CC5)cc34)ncn2)C[C@H](C)O1` [MLi-2], the residual activity in [1] (setting [26]) is 86%; in assay [2] (setting [26]) it was 65%; in [3] (setting [26]), 73%; in [4] (setting [26]), 100%; in [5] (setting [26]), 89%; in [6] (setting [26]), 85%. Further, the residual activity in assay [7] (setting [26]) is 93%; in assay [8] (setting [26]) it was 100%; in [9] (setting [26]), 97%; in assay [10] (setting [26]), 79%; in assay [11] (setting [26]), 98%; in [12] (setting [26]), 99%. Further, the residual activity is 87% in assay [13] (setting [26]); 100% in [14] (setting [26]); 80% in [15] (setting [26]); 100% in [16] (setting [26]); 100% in assay [17] (setting [26]); 76% in assay [18] (setting [26]). The residual activity is 81% in assay [19] (setting [26]), 92% in assay [20] (setting [26]) and 92% in assay [21] (setting [26]). In addition, the inhibition in assay [22] is -4.76%; in assay [23], -0.66%; in assay [24] it was 50.4%.

For the origin of these results see ChEMBL document CHEMBL4507291 (2021).
